≈ marks a conversion by molar mass, not a printed value. Non-standard residues stand in square brackets, D forms with d. Residues, ends and D or L forms follow the SMILES beside them. pGlu = O=C1CC[C@@H](C(=O)O)N1; Thz = O=C(O)[C@@H]1CSCN1
conditions: buffer; pH 7.4; 200.0 µM

Row | SMILES | solubility kinetic [µg/mL]
1 | Cc1ccc(C)c(C(=O)Nc2nc3ccccc3[nH]2)c1 | 0.4 (≈ 1.51 µM)
2 | CCOC(=O)c1sc2nc(C)[nH]c(=O)c2c1C | 2.7 (≈ 10.7 µM)
3 | CC(NC(=O)NC(=O)c1cccc([N+](=O)[O-])c1)C1CC1 (stereo unspecified) | 3.8 (≈ 13.7 µM)
4 | Cc1ccc(C)c(NC(=O)COC(=O)CC2CC3CCC2C3)c1 (stereo unspecified) | 20.4 (≈ 64.7 µM)
5 | COc1cc(/C=C/C(=O)OCC(=O)N(C)Cc2ccccc2)cc(OC)c1OC | > 59.9
6 | NC(=O)c1ccc(S(=O)(=O)N2CCSCC2)cc1 | 37.9 (≈ 132 µM)
7 | COc1ccc(C)cc1NC(=O)Nc1ccncc1 | 4.6 (≈ 17.9 µM)
8 | CCOc1cc(CN2CCCCCC2)ccc1OC | 27.4 (≈ 104 µM)
9 | Cc1nnc(NC(=O)C2CCN(S(=O)(=O)c3ccc(F)c(F)c3)CC2)o1 | > 58
10 | O=C1CC[C@@H](C(=O)N2CSC[C@H]2C(=O)O)N1 ([pGlu]-[Thz]-OH) | > 36.6
11 | CC1=CCC(C(=O)O)C(C(=O)Nc2ccc(-c3nc4ccc(C)cc4s3)cc2)C1 (stereo unspecified) | > 61
12 | Nc1ncnc2c1ncn2CCc1ccccc1 | > 35.9
13 | Cc1ccc(NC(=O)Cn2cc(C(=O)C3CC3)c3ccccc32)c(C)c1 | < 0.4
14 | COc1ccc(CCNS(=O)(=O)c2ccc3c(c2)CCCC3)cc1OC | 28.2 (≈ 75.1 µM)
15 | O=C(CNC(=O)c1ccc(Cl)cc1Cl)OC1CCCCC1=O (stereo unspecified) | 39.4 (≈ 114 µM)
16 | CC(NC1CCN(Cc2ccccc2)CC1)c1ccc(F)cc1 (stereo unspecified) | 42.3 (≈ 135 µM)
17 | C=CCSc1ncnc2c1oc1nc3c(cc12)COC(C)(C)C3 | 1.3 (≈ 3.97 µM)
18 | Cc1ccc(CNC(=O)C2CC(=O)N(CCC(C)C)C2)cc1 (stereo unspecified) | 40.5 (≈ 134 µM)
19 | O=C(COC(=O)c1ccccc1Oc1ccccc1)NC1CC1 | > 46.7
20 | Cc1cccc(N2CCN(Cc3ccc([N+](=O)[O-])o3)CC2)c1C | 6.1 (≈ 19.3 µM)
21 | Cc1ccc(N2C(=O)Cc3ccccc3C2=O)cc1 | > 37.7
22 | CCOC(=O)c1sc(=S)n(-c2ccccc2Cl)c1C | 2.7 (≈ 8.6 µM)
23 | O=C(O)c1ccc(COc2ccc([N+](=O)[O-])cc2)o1 | > 39.5
24 | N#CCCN(C(=O)COC(=O)c1ccc(S(=O)(=O)N2CCOCC2)cc1)c1ccccc1 | 8.2 (≈ 17.9 µM)
25 | C=CCn1c(SCC(=O)Nc2cccc(S(N)(=O)=O)c2)nc2sc(C)c(C)c2c1=O | 3 (≈ 6.46 µM)

Row | SMILES | solubility kinetic [µg/mL]
26 | N#CCCN(Cc1ccncc1)C(=S)NC1CC2C=CC1C2 (stereo unspecified) | 46.3 (≈ 148 µM)
27 | O=C(Nc1ccnc(-c2cccnc2)n1)c1cccs1 | 2.9 (≈ 10.3 µM)
28 | COC(=O)c1scc(S(=O)(=O)c2ccccc2)c1N | 1.9 (≈ 6.39 µM)
29 | Cc1ccn2c(NC3CCCC3)c(-c3ccccn3)nc2c1 | 30.6 (≈ 105 µM)
30 | Cc1ccccc1NC(=O)CCN1CCN(CCO)CC1 | 42.4 (≈ 146 µM)
31 | O=S(=O)([N-]c1nc2ccccc2nc1-[n+]1ccccc1)c1ccc(F)cc1 | 50.3 (≈ 132 µM)
32 | COC(=O)C1SCCN1S(=O)(=O)c1ccc(Cl)cc1 (stereo unspecified) | > 48.3
33 | Cc1ccc(S(=O)(=O)N2CCC(C(=O)OCC(=O)NCc3cccc(Cl)c3)CC2)cc1C | 11 (≈ 23 µM)
34 | O=C(Cc1cccs1)NCc1ccccc1Br | 24.8 (≈ 79.9 µM)
35 | CC1CCN(C(=O)C2COc3ccccc3O2)CC1 (stereo unspecified) | > 39.2
36 | CCOCC(=O)Nc1ccc(S(=O)(=O)NCC2CCCO2)cc1 (stereo unspecified) | > 51.4
37 | O=C(O)Cn1cc(/C=N/Nc2ccc([N+](=O)[O-])cn2)c2ccccc21 | > 50.9
38 | N/C(=N\OC(=O)Cc1ccccc1[N+](=O)[O-])c1ccccn1 | 42.3 (≈ 141 µM)
39 | Fc1ccc(-c2csc(N3CCOCC3)n2)cc1 | 2.1 (≈ 7.94 µM)
40 | Cc1onc(-c2ccccc2)c1CNC(=O)C1COc2ccccc2O1 (stereo unspecified) | 46.2 (≈ 132 µM)
41 | N/C(=N\OC(=O)c1ccc(Br)o1)c1cccnc1 | 39.1 (≈ 126 µM)
42 | O=C(Nc1nc(-c2ccccc2)ns1)c1ccncc1 | 2.4 (≈ 8.5 µM)
43 | CC1CC1C(=O)OCC(=O)c1c(N)n(C)c(=O)n(C)c1=O (stereo unspecified) | > 44.3
44 | O=S(=O)(Nc1ccc2c(c1)OCCO2)c1c(F)cccc1F | 47.8 (≈ 146 µM)
45 | S=C(NCc1ccccc1)Nc1cccc2ccccc12 | 3.8 (≈ 13 µM)
46 | O=C(CNC(=O)c1ccccc1F)c1ccccc1 | 32.5 (≈ 126 µM)
47 | O=C1/C(=C/c2cccnc2)N2CCC1CC2 | > 32.1
48 | CC1CCCN(C(=O)c2ccc3c(c2)OCCO3)C1 (stereo unspecified) | > 39.2
49 | Cc1onc(-c2ccccc2Cl)c1NC(=O)NCc1cccs1 | 42.6 (≈ 122 µM)
50 | O=CC(Cl)P(=O)(N1CCOCC1)N1CCOCC1 (stereo unspecified) | 32.5 (≈ 110 µM)

Row | SMILES | solubility kinetic [µg/mL]
51 | Cc1cc(C)c2c(=O)cc(C(F)(F)F)oc2n1 | 17.3 (≈ 71.1 µM)
52 | CCN1CCN(c2nc(N(C)c3ccccc3)nc(N)c2[N+](=O)[O-])CC1 | 49.3 (≈ 138 µM)
53 | CCCC12CN3CCN(C1)CC(CCC)(C3)C2=O | 30.9 (≈ 123 µM)
54 | Cc1ccc(-c2cc3ccccc3nc2N)cc1 | 4 (≈ 17.1 µM)
55 | CSc1ccccc1NC(=O)CN1CCCCC1 | 35.8 (≈ 135 µM)
56 | Cc1cnc(C(=O)NCCc2ccc(C(F)(F)F)cc2)cn1 | 11.9 (≈ 38.5 µM)
57 | Cc1c(C(=O)NC2CCCCC2)oc2ccccc12 | 5.3 (≈ 20.6 µM)
58 | CC(C)(C)Nc1c(-c2ccc(O)cc2)nc2ccc(Cl)cn12 | 0.4 (≈ 1.27 µM)
59 | Cc1cc(SCC(=O)NCC2CCCO2)nc2ccccc12 (stereo unspecified) | > 47.5
60 | FC(F)(F)c1ccc(Cl)c(-n2c(-c3ccco3)n[nH]c2=S)c1 | > 51.9
61 | CCc1nc2ccccc2c(C(=O)OCC(=O)NC2CC2)c1C | > 46.9
62 | CCOC(=O)Cc1csc(NC(=O)c2cccc([N+](=O)[O-])c2)n1 | > 50.3
63 | COc1ccc(/C=C2\N=C(C)OC2=O)cc1OC | 36.9 (≈ 149 µM)
64 | CC(=O)Nc1ccc(NC(=O)CC(c2ccccc2)c2ccccc2)cc1 | 2.1 (≈ 5.86 µM)
65 | Cc1ccc(C(=O)OC(C)C(=O)NC2CCCCC2C)s1 (stereo unspecified) | 14.6 (≈ 47.2 µM)
66 | CC1(C)CC(=O)C2=C(C1)NC(=O)NC2c1ccccc1Cl (stereo unspecified) | 45.6 (≈ 150 µM)
67 | COc1cc2c(cc1OC)C(c1ccc([N+](=O)[O-])cc1)NC(=O)C2 (stereo unspecified) | 45.6 (≈ 139 µM)
68 | O=C(NN1C(=O)NC2(CCCCC2)C1=O)c1cccs1 | > 44
69 | Clc1nnc(Cl)c2c1ncn2Cc1ccccc1 | > 41.9
70 | Cl.O=C(CCN1CCN(c2ccccc2F)CC1)c1ccc(Br)cc1 | 42.3
71 | O=C(COC(=O)C1CC1)NCc1ccccc1 | > 35
72 | O=C(O)c1ccc([N+](=O)[O-])c(CS(=O)(=O)c2ccccc2)c1 | > 48.2
73 | CC(C)NC(=O)c1ccc(-n2c(=S)[nH]c3ccccc3c2=O)cc1 | 3.9 (≈ 11.5 µM)
74 | O=C(NCCN1CCOCC1)c1c(O)nc2ccccn2c1=O | > 47.7
75 | CCc1ccccc1NC(=O)CC1SCCNC1=O (stereo unspecified) | > 41.8

Row | SMILES | solubility kinetic [µg/mL]
76 | CCCC(=O)Nc1ccc2c(c1)COC2=O | 18.5 (≈ 84.4 µM)
77 | O=[N+]([O-])c1cccc(-c2noc(COc3ccccc3)n2)c1 | 0.9 (≈ 3.03 µM)
78 | CN(CC(=O)Nc1cccc(F)c1)C(=O)/C=C/c1ccc2ccccc2n1 | 9.9 (≈ 27.2 µM)
79 | CC(Sc1nccn1C)C(=O)Nc1ccc(Cl)cn1 (stereo unspecified) | > 44.5
80 | Cc1cc(/C=C2\NC(=S)NC2=O)c(C)n1-c1cccnc1 | 4.8 (≈ 16.1 µM)
81 | NC(=O)CCSC(=S)N1CCOCC1 | > 35.1
82 | Cc1ccc(-c2ocnc2C(=O)N2CCOCC2)cc1 | > 40.8
83 | CC1(NC(=O)C2CCCCC2)CCS(=O)(=O)C1 (stereo unspecified) | 35.1 (≈ 135 µM)
84 | O=C(O)C1CCN(C(=O)CSc2nnc3ccccn23)CC1 | > 48.1
85 | O=[N+]([O-])c1cccc(S(=O)(=O)NCc2ccncc2)c1 | > 44
86 | Cc1cc(Cl)cc(C)c1OCCNCc1ccccc1.O=C(O)C(=O)O | 44.5
87 | CC(C)(C)N(Cc1ccccc1)C(=O)CN1C(=O)c2ccccc2S1(=O)=O | 15.7 (≈ 40.6 µM)
88 | O=C1CCCN1CC(O)CS(=O)(=O)Cc1ccccc1 (stereo unspecified) | > 44.6
89 | CCC(=O)N=c1ccn(C2=Nc3ccccc3NC2=C(C#N)C#N)cc1 | 30.9 (≈ 90.3 µM)
90 | COc1cccc(NC(=S)N(C)C2CCN(C)CC2)c1 | > 44
91 | O=C(Nc1cccnc1Cl)c1ccc(Cl)cc1 | 35 (≈ 131 µM)
92 | CCCCc1ccc(NC(=O)Nc2cnccn2)cc1 | 1.1 (≈ 4.07 µM)
93 | O=C(NN1CCOCC1)c1ccco1 | > 29.4
94 | COc1ccc(NC(=O)Cc2ccsc2)c(OC)c1 | > 41.6
95 | O=C(NCc1ccco1)NC(=O)c1csc([N+](=O)[O-])c1 | 0.6 (≈ 2.03 µM)
96 | O=C(/C=C/c1ccccc1)OCc1cncs1 | 32.2 (≈ 131 µM)
97 | Cc1ccccc1NC(=O)c1ccno1 | 23.5 (≈ 116 µM)
98 | COc1ccc(N2C(=O)CSC2c2ccc(F)cc2)cc1 (stereo unspecified) | > 45.5
99 | Cc1ccc(/C=C2/C(=O)NC(=O)N(Cc3ccc(F)cc3)C2=O)o1 | 11.4 (≈ 34.7 µM)
100 | COC(=O)c1ccc(S(=O)(=O)NCc2ccccn2)n1C | 39.6 (≈ 128 µM)

Row | SMILES | solubility kinetic [µg/mL]
101 | COC(=O)c1ccc(OCC2NCCc3cc(OC)c(OC)cc32)cc1 (stereo unspecified) | > 53.6
102 | COc1ccc(CCNC(=O)CSc2ccccn2)cc1OC | > 49.9
103 | CCCN(C(=O)c1cn(C)c(=O)c2ccccc12)c1ccccc1C | > 50.2
104 | NC(=O)c1ccc[n+](CC(=O)c2ccc(F)cc2)c1.[Br-] | > 50.9
105 | Oc1ccc(N2Cc3ccccc3C2)cc1 | 9.9 (≈ 46.9 µM)
106 | CCCn1c(=O)c(C(=O)Nc2cc(C)ccn2)c(O)c2ccccc21 | < 0.2
107 | CC(OC(=O)COc1ccccc1)C(=O)NC1CCCC1 (stereo unspecified) | > 43.7
108 | O=C(O)Cn1cnc2scc(-c3ccccc3)c2c1=O | > 42.9
109 | CCOc1ccc(N2CC(C(=O)NCc3ccco3)CC2=O)cc1 (stereo unspecified) | > 49.3
110 | COC(=O)/C=C1\N/C(=N/c2nc(C)c3cc(OC)ccc3n2)NC1=O | 1.4 (≈ 4.1 µM)
111 | CN(C)Cc1cc(C(C)(C)C)cc(C(C)(C)C)c1O | 0.8 (≈ 3.04 µM)
112 | ONC(=Nc1ccccc1Cl)c1c(F)cccc1F | 19 (≈ 67.2 µM)
113 | CC(NC(=O)COC(=O)Cn1cc(C(F)(F)F)ccc1=O)c1ccccc1 (stereo unspecified) | > 57.3
114 | Brc1ccc(-c2noc(-c3ccccc3)n2)o1 | < 0.3
115 | CC(C)=CC(=O)OCC(=O)Nc1ccc(Cl)cc1 | 36.3 (≈ 136 µM)
116 | O=S(=O)(c1ccccc1)N(Cc1ccccn1)Cc1ccccn1 | > 50.9
117 | COc1ccccc1NC(=O)COC(=O)c1cn(C)c2ccccc12 | 1.5 (≈ 4.43 µM)
118 | CC(=O)O.CC(C)CC1NC(C(=O)O)Cc2c1[nH]c1ccccc21 (stereo unspecified) | 48.4
119 | O=C(C1CCN(S(=O)(=O)c2ccccc2)CC1)N1CCCCC1 | 50.4 (≈ 150 µM)
120 | Cc1ccc(NC(=S)N2CCCCCC2)c(C)c1 | > 39.4
121 | OCCCc1nc2ccccc2n1Cc1ccccc1 | > 40

From PubChem BioAssay AID1996
